{
  "source": "patent US20240052423A1",
  "about": "“METHODS OF IDENTIFYING A TUMOR THAT IS SENSITIVE TO TREATMENT WITH TALAZOPARIB AND METHODS OF TREATMENT THEREOF” (PFIZER INC., priority 2020, published 2024)",
  "assay_type_in_all_cases": "in vivo, human",
  "key": {"[1]": {"system": "other solid tumors with a mutation in homologous recombination", "assay": "Phase II clinical trial of talazoparib, best response by RECIST v.1.1, non-breast cancer cohort", "settings": "Non-Breast Cancer (N = 7), 1 mg orally daily", "description": "(§1) A phase II clinical trial of the PARP inhibitor talazoparib in BRCA1 and BRCA2 wild-type patients with HER2-negative advanced breast cancer or other solid tumors with a mutation in homologous recombination was conducted as shown in FIG. 1. Eligible patients were adults (≥18 years old) with HER2-negative advanced or metastatic breast cancer that had progressed on at least 1 prior line of therapy for metastatic disease. Eligible patients also included adults (≥18 years old) with advanced or metastatic solid tumors beyond breast cancer that had progressed on at least one prior line of therapy. Patients were required to have no pathogenic mutations in either BRCA1 or BRCA2 genes on germline or somatic testing. They were required to have a pathogenic or likely pathogenic mutation in a HR-pathway associated gene detected on multiplex germline or somatic testing. These genes include: PALB2, CHEK2, ATM, NBN, BARD1, BRIP1, RAD50, RAD51C, RAD51D, MRE11, ATR, PTEN, Fanconi anemia complementation group of genes (FANCA, FANCC, FANCD2, FANCE, FANCF, FANCG, FANCL), plus other HR-related genes at the discretion of the primary investigators. Measurable disease by RECIST version 1.1 was required. There was no upper limit on the number of prior systemic therapies allowed prior to study entry. Patients were not allowed to have progressed during therapy with a platinum agent or within 8 weeks of discontinuing a platinum agent. Subjects were required to have an Eastern Cooperative Oncology Group (ECOG) performance status (PS) of 0-2 and adequate organ function based on screening laboratory values of liver, renal and hematologic parameters. The ability to take oral medications was required. Sexually active patients of childbearing potential were mandated to use contraception and females of childbearing age were tested for pregnancy at screening; females were not permitted to participate if pregnant or nursing and were tested for pregnancy at screening. Patients were excluded if they previously took any PARP inhibitor, had taken any anti-cancer therapy within 21-days of study entry, received radiation therapy within 14 days of study entry, had active brain metastasis requiring treatment or leptomeningeal disease. Patients with human immunodeficiency virus infection or active hepatitis C or hepatitis B viral infections were excluded. Also, patients requiring prolonged hospitalization, major surgery or receiving other investigational agent within 21 days prior to study entry were excluded. Additional key exclusion criteria were: other medical co-morbidity likely to interfere with study participation eg. infection grade ≥3 CTCAE version 4, or requiring parenteral antibiotics within 7 days, or known hypersensitivity to talazoparib. Talazoparib was administered at 1 mg orally daily continuously, taken whole, at approximately the same time each day. Treatment cycles lasted 28 days. Patients were evaluated on day 1 of each treatment cycle by physician assessment including medical history, physical examination, laboratory values (complete blood count (CBC) and comprehensive metabolic panel), vital signs, ECOG PS assessment and urine pregnancy test (for women of childbearing age only). Day 14 physician assessment was required for the first cycle and CBCs were required weekly for the first cycle, then prior to start of each subsequent cycle. Treatment continued until disease progressed or unacceptable toxicity. Safety was assessed at each physician visit and monitored continuously by laboratory values, patient reporting and patient diary. Adverse events (AEs) and severe AEs (SAEs) were graded according to CTCAE version 4.0. SAEs grade ≥3 were reported to the Data Safety Monitoring Committee. Tumor evaluation was performed at baseline and after every two cycles and responses were assessed according to RECIST version 1.1. After six cycles, tumor evaluations were allowed every 3 cycles per physician discretion. […]"}, "[2]": {"system": "HER2-negative advanced breast cancer or other solid tumors with a mutation in homologous recombination", "assay": "Phase II clinical trial of talazoparib, best response by RECIST v.1.1, combined cohorts", "description": "as §1"}, "[3]": {"system": "HER2-negative advanced or metastatic breast cancer with a non-BRCA1/2 mutation in homologous recombination", "assay": "Phase II clinical trial of talazoparib, best response by RECIST v.1.1, breast cancer cohort", "settings": "Breast Cancer (N = 13), 1 mg orally daily", "description": "as §1"}, "[4]": {"settings": "Combined (N = 20), 1 mg orally daily, RECIST v.1.1"}},
  "data": [
    {"smiles": "Cn1ncnc1[C@H]1c2n[nH]c(=O)c3cc(F)cc(c23)N[C@@H]1c1ccc(F)cc1", "note": "[talazoparib, (8S,9R)-5-fluoro-8-(4-fluorophenyl)-9-(1-methyl-1H-1,2,4-triazol-5-yl)-8,9-dihydro-2H-pyrido[4,3,2-de]phthalazin-3(7H)-one]", "values": [
      {"measurement": "CBR (CR + PR + SD ≥ 6 mos)", "setting": "[1]", "value": "2 (29%); n (%)"},
      {"measurement": "ORR (CR + PR)", "setting": "[1]; 95% CI: 0-41%", "value": "0 (0%); n (%)"},
      {"measurement": "Complete Response (CR), response rate", "setting": "[1]; RECIST v.1.1", "value": "0 (0%) n (%)"},
      {"measurement": "Partial Response (PR), response rate", "setting": "[1]; RECIST v.1.1", "value": "0 (0%) n (%)"},
      {"measurement": "Progressive Disease (PD), response rate", "setting": "[1]; RECIST v.1.1", "value": "3 (43%) n (%)"},
      {"measurement": "Stable Disease (SD), response rate", "setting": "[1]; RECIST v.1.1", "value": "4 (57%) n (%)"},
      {"measurement": "ORR (CR + PR)", "setting": "[2]; Combined (N = 20), 1 mg orally daily, 95% CI: 6-44%", "value": "4 (20%); n (%)"},
      {"measurement": "CBR (CR + PR + SD ≥ 6 mos)", "setting": "[2]; Combined (N = 20), 1 mg orally daily, 95% CI: 23-68%", "value": "9 (45%); n (%)"},
      {"measurement": "Complete Response (CR), response rate", "setting": "[2]; [4]", "value": "0 (0%) n (%)"},
      {"measurement": "Partial Response (PR), response rate", "setting": "[2]; [4]", "value": "4 (20%) n (%)"},
      {"measurement": "Progressive Disease (PD), response rate", "setting": "[2]; [4]", "value": "6 (30%) n (%)"},
      {"measurement": "Stable Disease (SD), response rate", "setting": "[2]; [4]", "value": "10 (50%) n (%)"},
      {"measurement": "partial responses observed in the first stage", "setting": "[2]; first stage of 10 patients", "value": "two"},
      {"measurement": "ORR (CR + PR)", "setting": "[3]; 95% CI: 9-61%", "value": "4 (31%); n (%)"},
      {"measurement": "CBR (CR + PR + SD ≥ 6 mos)", "setting": "[3]; 95% CI: 21-81%", "value": "7 (54%); n (%)"},
      {"measurement": "Complete Response (CR), response rate", "setting": "[3]; RECIST v.1.1", "value": "0 (0%) n (%)"},
      {"measurement": "Partial Response (PR), response rate", "setting": "[3]; RECIST v.1.1", "value": "4 (31%) n (%)"},
      {"measurement": "Progressive Disease (PD), response rate", "setting": "[3]; RECIST v.1.1", "value": "3 (23%) n (%)"},
      {"measurement": "Stable Disease (SD), response rate", "setting": "[3]; RECIST v.1.1", "value": "6 (46%) n (%)"}
    ]}
  ]
}
